Test results: patent US10034897B2, “Methods and compositions for muscular and neuromuscular diseases” (priority 2012, dated 2018)

Legend:
[1] = Nitric oxide gas bubbled through carrier, change in weight; type: physicochemical; details: NO gas bubbled 40 hr, 25 °C
Procedure: This example illustrates one technique for preparing a composition in accordance with one embodiment of the invention. An accurate amount of a carrier (HNC 167-62) (see below) was introduced into a system. The carrier weight used in these experiments was approximately 250 g and the vessel size was 500 ml. The vessel was equipped with a mechanical stirrer, gas inlet, and gas outlet and was previously purged with argon for about an hour. The temperature of the carrier was kept at about 25-30° C. NO gas regulated at 5 psi (1 psi is about 6,900 Pa) and was then introduced at a controlled rate of about 1 bubble/s with continuous stirring. […] After 6 hours, the weight of the carrier had increased by 0.15%, by 12 hours by 0.25%, and by 24 hours by 0.56%. These increases in weight were believed to be significant considering the relative small molecular weight of NO versus the carrier. […] The carrier also can solidify upon cooling if the carrier is initially a solid at lower temperature.
Each carrier was taken in a 500 mL three necked flask equipped with a mechanical stirrer, gas inlet and a gas outlet. The system was purged with argon for one hour at room temperature (25° C.). Then nitric oxide gas was bubbled into the system. Then, nitric oxide gas was bubbled through carrier for stipulated amount of time. The changes in weight and color were noted. […]

humans [2] = assay: Laser Doppler capillary blood flow, closed Hilltop chamber on forearm, Example 5; type: in vivo, human; details: applied to the skin at 1/10% in alcohol
From the text: The formulation used in these studies contained nitric oxide dispersed in a lipid matrix. […] Nitric oxide is a very rapid acting molecule, and these studies used a system that employed laser Doppler with a covered chamber. The formulation was placed into the chamber and then attached to the skin by an adhesive layer on the covering. This provided a stable measuring device as determined by multiple normal evaluations of the capillary blood flow without treatment of nitric oxide.
A known positive control, methyl nicotinate, was applied to the skin at a concentration of 1/10% in alcohol. […] The vascular dynamics are such that when the blood vessels dilate physical parameters follow Bernoulli's law. This states that as one increases the diameter of a tube containing a liquid to flow will increase but the pressure and the speed of the liquid will decrease. The laser Doppler device accurately measured these parameters.
The test product was labeled as 10,000 ppm NO (nitric oxide). The study participants had 100 mg of the test product applied in a closed Hilltop chamber on the forearm. […]
A Moor Instruments DRT4 Laser Doppler Blood Flow Monitor (Devon, England) was used in these studies. The laser Doppler technique measured blood flow in the microcapillaries of the skin that are close to the skin surface and the blood flow in underlying arterioles and venules that help to regulate skin temperature. […]

humans [3] = assay: Laser Doppler capillary circulation in five human subjects, Example 7; type: in vivo; details: positive control formulation containing 0.1% methyl nicotinate
From the text: This example illustrates delivery of nitric oxide formulations to five human subjects, using procedures and formulations similar to those discussed in Example 5. Each person served as their own control for the testing. A Moor Instruments Laser Doppler was used to determine circulation. […] The formulations used produce positive, almost immediate results when applied to the skin which, in these studies, was manifested by vasodilatation of the cutaneous vascular system.
For each subject, the following creams were applied: a negative control formulation (containing no NO), 0.010 gram of a 10,000 ppm NO formulation, 0.020 gram of a 10,000 ppm NO formulation, and a positive control formulation containing 0.1% methyl nicotinate. The formulations were prepared using procedures similar to those discussed in Example 1.

Row | Compound | % Wt. gain [1] [%] | Wt Gain [1] [g] | laser Doppler response of positive control (humans [2]) | vasodilatation (humans [3])
1 | OCCCO [1,3-Propanediol, 1,3-propanediol] | 0.09 | 0.16 | – | –
2 | COC(=O)c1cccnc1 [methyl nicotinate] | – | – | rapid response typical of the vasodilator | vasodilatation was observed
